Measurements published in patent EP4813403A1, “USE OF GLP-1R/GIPR DOUBLE-TARGET AGONIST IN PREPARING ANIMAL DRUG” (Hangzhou Zhongmeihuadong Pharmaceutical Co., Ltd., priority 2023, dated 2025).

How the values were obtained:
[1] = in vivo; design: species or system cats; settings: sc, 0.025 mg/kg
Experimental: After subcutaneous administration to cats, plasma was collected and the drug concentration in plasma was determined to illustrate the in vivo pharmacokinetic properties of the compound according to the present invention. […] The blood samples were stored on wet ice and centrifuged (1500-1600 g, 2-8°C, for 10 minutes) within 0.5 hours to obtain plasma, with at least 100 µL of plasma required for each sample. The plasma was then frozen and stored at -90°C to -60°C for subsequent analysis and detection. 30.0 µL of thawed plasma sample were taken, and 300 µL of acetonitrile solution containing an internal standard was added to precipitate the proteins. The mixture was vortexed for 1 minute and then centrifuged at 13,000 rpm for 5 minutes. 165 µL of the supernatant were transferred to a 96-well plate for LC-MS/MS analysis to determine the drug concentration in the plasma. Based on the drug concentration in plasma of the compound in the cats, the pharmacokinetic parameters were calculated by applying the software Winnolin 8.3 in a non-compartmental model. Table 12 Average pharmacokinetic parameters after single subcutaneous administration in cats

[2] = tested on: DIO mice; assay: Weight loss effect in DIO mice obesity model; assay type: in vivo; design: Cumulative food intake / Fasting blood glucose / Insulin / Serum TC / ALT: unit not given here; settings: for Insulin resistance index / Serum TC / Fasting blood glucose / Insulin / Body weight / Cumulative food intake / Liver Weight / ALT: Mean±SEM, 10 mice; for Insulin: D30 serum; for Body weight / Cumulative food intake / Liver Weight / Total abdominal fat: s.c. once every 3 days for 4 weeks; for Total abdominal fat: sum of perirenal and paratesticular fat; for ALT: serum
Experimental: In this study, 26-week-old male DIO mice were used. DIO mice were housed in appropriate cages. DIO mice were housed in an environment-monitored and well-ventilated SPF-grade animal room, with the temperature maintained between 20 and 26°C and relative humidity between 40% and 70%. […] The mice received food and water ad libitum. […] The mice were subcutaneously administrated once every 3 days for 4 consecutive weeks. […] Food intake was measured once daily after administration. RBG was measured before grouping and at 48 h after each administration. After fasted for 5 h on D30 (no water deprivation was required), FBG and glycated hemoglobin A1c (HbA1c) were detected, and blood was collected intravenously to separate the serum. A mouse insulin ELISA kit was used to detect the insulin content in the serum, and a biochemistry analyser was used to detect total cholesterol (TC), TG, low-density lipoprotein cholesterol (LDL), high-density lipoprotein cholesterol (HDL), free fatty acid (FFA), ALT, and aspartate aminotransferase (AST) content. The liver was collected, the perirenal and paratesticular fat tissues were separated and weighed, the organ-body ratio was calculated. The liver was stained with HE and Oil Red O for pathological scoring. The data results were statistically analyzed using one-way analysis of variance (ANOVA). A Levene's test was performed to test for variance homogeneity. If the result was homogeneous (P>0.05), a one-way analysis of variance (ANOVA) would be performed. […] In the case of heterogeneity of variance (P ≤0.05 ), a Dunnett's T3 test would be performed. Results were expressed as mean and standard deviation (Mean ± SEM). The test level was 0.05. Both statistical significance and biological significance were considered when analyzing the results.

[3] = 0.3 nmol/kg s.c. once every 3 days
[4] = 1 nmol/kg s.c. once every 3 days
[5] = 3 nmol/kg s.c. once every 3 days
[6] = 30 nmol/kg s.c. once every 3 days

CC[C@H](C)[C@H](NC(=O)C(C)(C)NC(=O)[C@H](Cc1ccc(O)cc1)NC(=O)[C@H](CC(=O)O)NC(=O)[C@H](CO)NC(=O)[C@@H](NC(=O)C(C)(Cc1ccccc1)NC(=O)[C@@H](NC(=O)CNC(=O)[C@H](CCC(=O)O)NC(=O)C(C)(C)NC(=O)[C@@H](N)Cc1ccc(O)cc1)[C@@H](C)O)[C@@H](C)O)C(=O)NC(C)(C)C(=O)N[C@@H](CC(C)C)C(=O)N[C@@H](CC(=O)O)C(=O)N[C@@H](CCCCN)C(=O)N[C@@H](CCC(N)=O)C(=O)N[C@@H](C)C(=O)N[C@@H](CCC(N)=O)C(=O)N[C@@H](C)C(=O)N[C@@H](CCC(=O)O)C(=O)N[C@@H](Cc1ccccc1)C(=O)N[C@H](C(=O)N[C@@H](CCCCNC(=O)COCCOCCNC(=O)COCCOCCNC(=O)COCCOCCNC(=O)CC[C@H](NC(=O)CCCCCCCCCCCCCCCCCCCCC(=O)O)C(=O)O)C(=O)N[C@@H](Cc1c[nH]c2ccccc12)C(=O)N[C@@H](CC(C)C)C(=O)N[C@@H](CC(C)C)C(=O)N[C@@H](CCCCN)C(=O)NCC(=O)NCC(=O)N1CCC[C@H]1C(=O)N[C@@H](CO)C(=O)N[C@@H](CO)C(=O)NCC(=O)N[C@@H](C)C(=O)N1CCC[C@H]1C(=O)N1CCC[C@H]1C(=O)N1CCC[C@H]1C(=O)N[C@@H](CO)C(=O)N[C@@H](CCCCN)C(N)=O)C(C)C (stereo partly drawn) [Compound P016]
AUC(0-inf) ([1]; both sexes, cat): 11200 ng·h/mL
AUC(0-t) ([1]; both sexes, cat): 9260 ng·h/mL
Cmax ([1]; both sexes, cat): 123 ng/mL
Tmax ([1]; both sexes, cat): 24 h
half-life ([1]; both sexes, cat): 37.4 h
MRT ([1]; both sexes, cat, MRT0-t): 54.4 h
MRT ([1]; both sexes, cat, MRT0-∞): 61.6 h
AUC(0-t) [1]: 9260 ng·h/mL
T1/2 [1]: 37.4 h
Insulin resistance index [2, 3]: 43.94±6.288
Serum TC [2, 3]: 4.07±0.26
Insulin resistance index [2, 4]: 21.532±3.705
Serum TC [2, 4]: 3.26±0.20
Insulin resistance index [2, 5]: 11.991±1.907
Serum TC [2, 5]: 2.61±0.13
Insulin resistance index [2, 6]: 5.179±1.178
Serum TC [2, 6]: 2.50±0.18
Fasting blood glucose ([2]; D30, 0.3 nmol/kg s.c. once every 3 days): 13.78±0.39
Fasting blood glucose ([2]; D30, 1 nmol/kg s.c. once every 3 days): 11.23±0.40
Fasting blood glucose ([2]; D30, 3 nmol/kg s.c. once every 3 days): 10.36±0.67
Fasting blood glucose ([2]; D30, 30 nmol/kg s.c. once every 3 days): 8.39±0.30
Insulin [2, 3]: 3.285±0.481
Insulin [2, 4]: 1.911±0.29
Insulin [2, 5]: 1.196±0.185
Insulin [2, 6]: 0.624±0.130
Body weight ([2]; 0.3 nmol/kg): 45.4 ± 1.3 g
Cumulative food intake ([2]; 0.3 nmol/kg): 75.75±2.81
Liver Weight ([2]; 0.3 nmol/kg): 1.552 ± 0.106 g
Total abdominal fat ([2]; 0.3 nmol/kg): 2.631 ± 0.069 g
Body weight ([2]; 1 nmol/kg): 38.3 ± 1.1 g
Cumulative food intake ([2]; 1 nmol/kg): 61.40±1.58
Liver Weight ([2]; 1 nmol/kg): 1.191 ± 0.075 g
Total abdominal fat ([2]; 1 nmol/kg): 1.849 ± 0.181 g
Body weight ([2]; 3 nmol/kg): 34.1 ± 0.7 g
Cumulative food intake ([2]; 3 nmol/kg): 55.47±2.72
Liver Weight ([2]; 3 nmol/kg): 1.069 ± 0.029 g
Total abdominal fat ([2]; 3 nmol/kg): 0.972 ± 0.076 g
Body weight ([2]; 30 nmol/kg): 29 ± 0.7 g
Cumulative food intake ([2]; 30 nmol/kg): 48.38±2.31
Liver Weight ([2]; 30 nmol/kg): 0.995 ± 0.029 g
Total abdominal fat ([2]; 30 nmol/kg): 0.461 ± 0.034 g
ALT [2, 3]: 95.60±14.09
ALT [2, 4]: 43.90±3.86
ALT [2, 5]: 52.80±9.62
ALT [2, 6]: 49.60±5.67
